Laboratory results published in US8367658B2, “Pyrazin-2-yl-pyridin-2-yl-amine and pyrazin-2-yl-pyrimidin-4-yl-amine compounds and their use” (Cancer Research Technology Limited, priority 2007, dated 2013).
“And” between values parts separate entries of the source, which are not always exact repeats. Equal values may be shown once.

target: T1, CHK1 (Homo sapiens, UniProt O14757); assay: CHK1 kinase function inhibition assay (DELFIA, phosphorylation of a CDC25C peptide); assay type: biochemical; conditions: CHK1 1 nM, ATP 30 μM, 30 minutes at room temperature
T1 sequence (O14757 1-476): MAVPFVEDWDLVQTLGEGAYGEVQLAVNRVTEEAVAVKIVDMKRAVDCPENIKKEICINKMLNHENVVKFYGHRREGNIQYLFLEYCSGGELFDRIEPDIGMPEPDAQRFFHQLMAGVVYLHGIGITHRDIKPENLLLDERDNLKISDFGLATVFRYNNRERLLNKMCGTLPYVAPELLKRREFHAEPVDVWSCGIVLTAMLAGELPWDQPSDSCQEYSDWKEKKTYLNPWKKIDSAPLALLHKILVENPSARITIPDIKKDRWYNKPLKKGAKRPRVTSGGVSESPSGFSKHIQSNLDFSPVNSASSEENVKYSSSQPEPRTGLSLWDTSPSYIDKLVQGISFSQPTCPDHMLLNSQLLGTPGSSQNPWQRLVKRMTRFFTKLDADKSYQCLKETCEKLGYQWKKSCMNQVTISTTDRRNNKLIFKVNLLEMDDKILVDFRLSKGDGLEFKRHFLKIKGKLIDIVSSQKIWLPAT
Procedure: Measurement of Inhibition of CHK1 Kinase Function
CHK1 kinase function was measured in a DELFIA® assay in order to monitor phosphorylation of a CDC25C peptide using a specific phospho antibody.
The reaction mixture was incubated for 30 minutes at room temperature and then stopped by the addition of buffer (125 μL) containing 40 mM EDTA, 0.05% Tween 20, 0.1% BSA in TBS (10× concentrate, Sigma). An aliquot (100 μL) of the stopped reaction mixture was transferred to a black neutravidin-coated plate (Perbio) and incubated for 1 hour on a shaker (Titertek, Flow Laboratories) at room temperature. […] The plates were washed a further four times with wash buffer before the addition of enhancement solution (100 μL/well, PerkinElmer Life Sciences).

| IC50 | SMILES |
| --- | --- |
| ≤ 100 nM | COC(=O)c1cnc(Nc2cnc(C#N)cn2)cc1NCC1(F)CCNCC1 [Compound Y-083, Methyl 6-(5-Cyanopyrazin-2-ylamino)-4-((4-fluoropiperidin-4-yl)methylamino)nicotinate] |
| ≤ 100 nM | COC(=O)c1cnc(Nc2cnc(C#N)cn2)cc1NCC1(C)CCNCC1 [Compound Y-026, Methyl 6-(5-cyanopyrazin-2-ylamino)-4-((4-methylpiperidin-4-yl)methylamino)nicotinate] |
| ≤ 100 nM | COc1ccc(-c2cnc(Nc3cnc(C#N)cn3)cc2NC2CCN(C)CC2)cc1 [Compound Y-114, 5-(5-(4-methoxyphenyl)-4-(1-methylpiperidin-4-ylamino)pyridin-2-ylamino)pyrazine-2-carbonitrile] |
| 100 to 1000 nM | N#Cc1cnc(Nc2cc(NCC3CCNCC3)c(C(=O)Nc3ccc(F)cc3)cn2)cn1 [Compound Y-092, 6-(5-Cyanopyrazin-2-ylamino)-N-(4-fluorophenyl)-4-(piperidin-4-ylmethylamino)nicotinamide] |
| 1000 to 10000 nM | N#Cc1cnc(Nc2cc(NCC3CCCCN3)c(N)cn2)cn1 (centres unmarked) [Compound Y-051, 5-(5-Amino-4-(piperidin-2-ylmethylamino)pyridin-2-ylamino)pyrazine-2-carbonitrile] |
| ≤ 100 nM | CN1CCC(Nc2cc(Nc3cnc(C#N)cn3)ncc2-c2ccc(N3CCOCC3)cc2)CC1 [Compound Y-120, 5-(4-(1-Methylpiperidin-4-ylamino)-5-(4-morpholinophenyl)pyridin-2-ylamino)pyrazine-2-carbonitrile] |
| ≤ 100 nM | CS(=O)(=O)c1ccc(-c2cnc(Nc3cnc(C#N)cn3)cc2NCC2CCNCC2)cc1 [Compound Y-130, 5-(5-(4-(methylsulfonyl)phenyl)-4-(piperidin-4-ylmethylamino)pyridin-2-ylamino)pyrazine-2-carbonitrile] |
| 1000 to 10000 nM | N#Cc1cnc(Nc2cc(OCC3CCNCC3)c(N)cn2)cn1 [Compound Y-038, 5-(5-Amino-4-(piperidin-4-ylmethoxy)pyridin-2-ylamino)pyrazine-2-carbonitrile] |
| ≤ 1000 nM and 100 to 1000 nM | CC(C)(CO)Nc1cc(Nc2cnc(C#N)cn2)ncn1 [Compound Z-039, 5-(6-(1-Hydroxy-2-methylpropan-2-ylamino)pyrimidin-4-ylamino)pyrazine-2-carbonitrile] |
| ≤ 100 nM | COc1ccc(-c2cnc(Nc3cnc(C#N)cn3)cc2NCCC2CNCCO2)cc1 (centres unmarked) [Compound Y-137, 5-(5-(4-methoxyphenyl)-4-(2-(morpholin-2-yl)ethylamino)pyridin-2-ylamino)pyrazine-2-carbonitrile] |
| ≤ 100 nM | N#Cc1cnc(Nc2cc(NCC3CCCNC3)c(N3CC[C@H](O)C3)cn2)cn1 (stereo partly drawn) [Compound Y-060, 5-(5-((S)-3-Hydroxypyrrolidin-1-yl)-4-(piperidin-3-ylmethylamino)pyridin-2-ylamino)pyrazine-2-carbonitrile] |
| 1000 to 10000 nM | N#Cc1cnc(Nc2cc(N3CCC(C(N)c4ccccc4)CC3)ncn2)cn1 (centres unmarked) [Compound Z-015, 5-(6-(4-(Amino(phenyl)methyl)piperidin-1-yl)pyrimidin-4-ylamino)pyrazine-2-carbonitrile] |
| ≤ 100 nM | COC/C=C/c1cnc(Nc2cnc(C#N)cn2)cc1NCC1CCNCC1 [Compound Y-139, (E)-5-(5-(3-Methoxyprop-1-enyl)-4-(piperidin-4-ylmethylamino)pyridin-2-ylamino)pyrazine-2-carbonitrile] |
| 1000 to 10000 nM | c1cnc(Nc2cc(NCC3CCNCC3)ncn2)cn1 [Compound Z-004, N-(Piperidin-4-ylmethyl)-W-pyrazin-2-ylpyrimidine-4,6-diamine] |
| ≤ 1000 nM and 100 to 1000 nM | N#Cc1cnc(Nc2cc(NCC3CCNCC3)c(N)cn2)cn1 [Compound Y-001, 5-(5-Amino-4-(piperidin-4-ylmethylamino)pyridin-2-ylamino)pyrazine-2-carbonitrile] |
| ≤ 100 nM | COCCOc1ccc(-c2cnc(Nc3cnc(C#N)cn3)cc2NC[C@@H]2CNCCO2)cc1 [Compound Y-149, (S)-5-(5-(4-(2-Methoxyethoxy)phenyl)-4-(morpholin-2-ylmethylamino)pyridin-2-ylamino)pyrazine-2-carbonitrile] |
| ≤ 100 nM | CN1CCC(Nc2cc(Nc3cnc(C#N)cn3)ncc2-c2ccccc2)CC1 [Compound Y-111, 5-(4-(1-Methylpiperidin-4-ylamino)-5-phenylpyridin-2-ylamino)pyrazine-2-carbonitrile] |
| 1000 to 10000 nM | N#Cc1cnc(Nc2cc(OCC3CCOCC3)c(NC(=O)CCC3CCNCC3)cn2)cn1 [Compound Y-069, N-(6-(5-Cyanopyrazin-2-ylamino)-4-((tetrahydro-2H-pyran-4-yl)methoxy)pyridin-3-yl)-3-(piperidin-4-yl)propanamide] |

| IC50 | SMILES |
| --- | --- |
| 1000 to 10000 nM | COc1nc(Nc2cc(NCC3CCNCC3)ncn2)cnc1C#N [Compound Z-046, 3-Methoxy-5-(6-(piperidin-4-ylmethylamino)pyrimidin-4-ylamino)-pyrazine-2-carbonitrile] |
| 100 to 1000 nM | N#Cc1cnc(Nc2cc(NCC3CCNCC3)c(C(=O)Nc3cccc(F)c3)cn2)cn1 [Compound Y-094, 6-(5-Cyanopyrazin-2-ylamino)-N-(3-fluorophenyl)-4-(piperidin-4-ylmethylamino)nicotinamide] |
| ≤ 1000 nM and 100 to 1000 nM | N#Cc1cnc(Nc2cc(N[C@@H]3CCCNC3)c(N)cn2)cn1 [Compound Y-008, (R)-5-(5-Amino-4-(piperidin-3-ylamino)pyridin-2-ylamino)pyrazine-2-carbonitrile] |
| ≤ 100 nM | COC(=O)c1cnc(Nc2cnc(C#N)cn2)cc1NCC[C@H]1CNCCO1 [Compound Y-082, (S)-Methyl 6-(5-cyanopyrazin-2-ylamino)-4-(2-(morpholin-2-yl)ethylamino)nicotinate] |
| ≤ 100 nM | COC(C)(C)C#Cc1cnc(Nc2cnc(C#N)cn2)cc1NC[C@@H]1CNCCO1 [Compound Y-155, (S)-5-(5-(3-Methoxy-3-methylbut-1-ynyl)-4-(morpholin-2-ylmethylamino)pyridin-2-ylamino)pyrazine-2-carbonitrile] |
| 1000 to 10000 nM | N#Cc1cnc(Nc2cc(NCCC(N)c3ccccc3)c(N)cn2)cn1 (centres unmarked) [Compound Y-050, 5-(5-Amino-4-(3-amino-3-phenylpropylamino)pyridin-2-ylamino)pyrazine-2-carbonitrile] |
| ≤ 100 nM | N#Cc1cnc(Nc2cc(NCCCN)c(N)cn2)cn1 [Compound Y-042, 5-(5-Amino-4-(3-aminopropylamino)pyridin-2-ylamino)pyrazine-2-carbonitrile] |
| ≤ 100 nM | N#Cc1cnc(Nc2cc(NCC3CCCNC3)c(N)cn2)cn1 (centres unmarked) [Compound Y-041, 5-(5-Amino-4-(piperidin-3-ylmethylamino)pyridin-2-ylamino)pyrazine-2-carbonitrile] |
| 1000 to 10000 nM | CN(C)CCNc1cc(Nc2cnc(C#N)cn2)ncc1N [Compound Y-004, 5-(5-Amino-4-(2-(dimethylamino)ethylamino)pyridin-2-ylamino)pyrazine-2-carbonitrile] |
| ≤ 100 nM | COc1cccc(-c2cnc(Nc3cnc(C#N)cn3)cc2NC2CCN(C)CC2)c1 [Compound Y-116, 5-(5-(3-Methoxyphenyl)-4-(1-methylpiperidin-4-ylamino)pyridin-2-ylamino)pyrazine-2-carbonitrile] |
| ≤ 100 nM | CCOC(=O)c1ccn(-c2cnc(Nc3cnc(C#N)cn3)cc2NCC2CCCNC2)c1 (centres unmarked) [Compound Y-064, Ethyl 1-(6-(5-cyanopyrazin-2-ylamino)-4-(piperidin-3-ylmethylamino)pyridin-3-yl)-1H-pyrrole-3-carboxylate] |
| ≤ 1000 nM and 100 to 1000 nM | N#Cc1cnc(Nc2cc(NCCC3CCNCC3)ncn2)cn1 [Compound Z-029, 5-(6-(2-(Piperidin-4-yl)ethylamino)pyrimidin-4-ylamino)pyrazine-2-carbonitrile] |
| ≤ 100 nM | COC(=O)c1cnc(Nc2cnc(C#N)cn2)cc1NC1CCNCC1 [Compound Y-078, Methyl 6-(5-cyanopyrazin-2-ylamino)-4-(piperidin-4-ylamino)nicotinate] |
| 100 to 1000 nM | CN(C)CC(=O)Nc1cnc(Nc2cnc(C#N)cn2)cc1NCC1CCCNC1 (centres unmarked) [Compound Y-044, N-(6-(5-Cyanopyrazin-2-ylamino)-4-(piperidin-3-ylmethylamino)pyridin-3-yl)-2-(dimethylamino)acetamide] |
| 1000 to 10000 nM | N#Cc1cnc(Nc2cc(N[C@H]3CCCNC3)ncn2)cn1 [Compound Z-013, (S)-5-(6-(Piperidin-3-ylamino)pyrimidin-4-ylamino)pyrazine-2-carbonitrile] |
| 1000 to 10000 nM | N#Cc1cnc(Nc2cc(N[C@H]3CCCNC3)c(N)cn2)cn1 [Compound Y-009, (S)-5-(5-Amino-4-(piperidin-3-ylamino)pyridin-2-ylamino)pyrazine-2-carbonitrile] |
| ≤ 100 nM | N#Cc1cnc(Nc2cc(NCC3CCNCC3)c(C#CCO)cn2)cn1 [Compound Y-145, 5-(5-(3-Hydroxyprop-1-ynyl)-4-(piperidin-4-ylmethylamino)pyridin-2-ylamino)pyrazine-2-carbonitrile] |
